# Source: US20240115629A1, “ORAL COMPOSITION” (BLIS TECHNOLOGIES LIMITED, priority 2021, published 2024)
# Test system: BLIS M18 and K12
# Test: Comparison of foaming agents: inhibition on agar plates
# Assay type: cell-based, Streptococcus salivarius
# Conditions: 10 μL spotted on CABK12 and BaCa agar plates, 37° C. 5% CO2, 24 hrs
# Method: Samples were prepared by • 1. mixing 1.1 g of BLIS M18 with 9.9 g of phosphate buffered saline (PBS) for 5 min and diluting by 1 in 10 with PBS • 2. adding to CABK12 and BaCa agar plates • 3. spotting 10 μL of foaming agent to plates and incubating at 37° C. 5% CO2 for 24 hrs, • 4. determining inhibition
row,Molecule,Inhibitory to BLIS M18 and K12
1,Sodium Cocyl Isethionate,Yes
2,Coco Glucoside,Yes
3,CCCCCCCCCCCCOS(=O)(=O)[O-].[Na+] [Sodium Lauryl Sulphate],Yes
4,CCCCCCCCO[C@@H]1O[C@H](CO)[C@@H](O)[C@H](O)[C@H]1O [Caprylyl glucoside],Yes
5,CCCCCCCCCCO[C@@H]1O[C@H](CO)[C@@H](O)[C@H](O)[C@H]1O [Decyl Glucoside],Yes
6,Lauryl glucoside,Yes
7,CCCCCCCC/C=C\CCCCCCCC(=O)OCCOCC(OCCO)C1OCC(OCCO)C1OCCO (stereo not shown) [Polysorbate 80],No
